# According to publication PMC3923439, “Anti-inflammatory properties of a novel peptide interleukin 1 receptor antagonist” (Journal of Neuroinflammation, 2014):
# Columns and labels:
# [1] = tested on: neonatal rat pancreatic islets; test: IL-1β-induced nitric oxide production (nitrite, Griess reagent); type: cell-based; conditions: nitrites in supernatants of the apoptosis experiments, four independent experiments
# Procedure: (§1) For cell death detection, rat islets were incubated with 150 pg/ml IL-1β (BD Pharmingen, San Diego, CA, USA) alone or in combination with various concentrations of Ana and Ilantide for 24 hours at 37°C in humidified atmospheric air. Rat islet cell death was assessed by cell death detection ELISA (Roche, Lund, Sweden) as previously described. As a surrogate measure of nitric oxide production, Griess reagent (1:1 aqueous mixture of 0.1% naphthylethylenediamine hydrochloride and 1% sulfanilamide + 5% H3PO4) was mixed in a 1:1 ratio with 100 μl of supernatant samples to determine the nitrite content in supernatants from the cell death assays described above.
# Figure 8 Effect of Ilantide on interleukin 1β-induced nitric oxide production. Anakinra (A) but none of the peptides, Ilantide-m (B) or Ilantide-t (C), inhibited interleukin 1β (IL-1β)-induced nitric oxide production. The results of four independent experiments are shown. *P < 0.05 and **P < 0.01 compared with cultures treated with IL-1 alone (one-way analysis of variance followed by Dunnett’s post hoc test).
# [2] = tested on: neonatal rat pancreatic islets; test: IL-1β-induced rat islet cell apoptosis (cell death detection ELISA); type: cell-based; conditions: rat islets, 8.68 nM (150 pg/ml) IL-1β, 24 hours
# Procedure: Neonatal rat islets were isolated from 3- to 6-day-old outbred Wistar rats (Taconic, Ejby, Denmark) as previously described. Islets were precultured and maintained in RPMI 1640 medium (Gibco/Life Technologies) supplemented with 20 mmol/L HEPES buffer, 0.038% (wt/vol) NaHCO3, 100 U/ml penicillin, 100 µg/ml streptomycin and 10% (vol/vol) newborn calf serum (NCS) at 37°C in humidified atmospheric air. Prior to experimentation, the islets were randomly distributed to 24-well dishes and incubated for 2 hours in RPMI 1640 medium supplemented as described above, but with 0.5% (vol/vol) NCS relevant reagents were added as indicated.
# as §1
# Figure 7 Effect of Ilantide on interleukin 1β-induced rat islet cell apoptosis. Rat pancreatic islets were preincubated for 30 minutes in the absence or presence of various concentrations of anakinra (A), Ilantide-m (B) or Ilantide-t (C) and then exposed to […] interleukin 1β (IL-1β) for 24 hours. Cytokine-induced apoptosis was determined by cell death detection enzyme-linked immunosorbent assay. Apoptosis rates are presented as fold induction compared with untreated control islets (white bars). The data from four independent experiments are presented as mean ± SEM. *P < 0.05 and **P < 0.01 compared with cultures treated with IL-1β alone (one-way analysis of variance followed by Dunnett’s post hoc test).
# [3] = tested on: LPS-induced neuroinflammation; test: Lipopolysaccharide-induced impairment of social behavior; type: in vivo; conditions: rat, Ana 100 mg/kg s.c.
# Procedure: The peripheral administration of LPS, the active fragment of bacterial endotoxin, results in an increase in the plasma levels of all proinflammatory cytokines and behavioral depression. LPS-induced behavioral depression was assessed by measuring the reduction of the duration of social interaction during 4-minute sessions. Six- to seven-week-old rats were handled for five days, habituated to the test cages and the experiment room and trained for social interaction with three-week-old juvenile rats introduced into the test cage for four minutes two days before the actual experiment. On the day of the experiment, the rats were intraperitoneally injected (i.p.) with saline or LPS (Escherichia coli 0111:B4; Sigma-Aldrich) dissolved in saline (250 μg/kg). Immediately after the i.p. injection, Ilantide-t (Ila; 10 mg/kg, equivalent to 2.1 μmol/kg), Ana ([…], equivalent to 5.8 μmol/kg) or saline was injected subcutaneously. The volume of all of the injections was 1.0 ml/kg. Six experimental groups were used: vehicle i.p./vehicle s.c. (veh/veh; n = 10), vehicle i.p./Ilantide-t s.c. (veh/Ila; n = 8), vehicle i.p./Ana s.c. (veh/Ana; n = 9), LPS i.p./vehicle s.c. (LPS/veh; n = 10), LPS i.p./Ilantide-t s.c. (LPS/Ila; n = 11) and LPS i.p./Ana s.c. (LPS/Ana; n = 11). The injections and weighing of the rats were performed immediately after the first test session (0 h), and the animals were tested and weighed again 2, 4, 6, 8, and 24 hours later. Different juvenile animals were presented on each occasion. Social interaction consisted of anogenital sniffing, licking and chewing the fur of the juveniles by the experimental animals and was monitored with a video camera. […] The duration of social interaction at each time point is expressed as the percentage of baseline values and was averaged for each experimental group. Social interaction was scored by an observer who was blinded to the treatment of the animals. For evaluation of levels of pro- and anti-inflammatory cytokines in blood, rats were injected with LPS and then immediately with either vehicle (n = 8) or Ilantide-t (n = 8) as described above. In addition, a control group of animals (n = 4) was treated with Ilantide-t alone (control). Blood samples were collected at 0, 2 and 6 hours after injections as described for the pharmacokinetics study and stored at -20°C until use. The levels of IL-6, IFN-γ and IL-10 were determined using corresponding rat ELISA kits according to the manufacturer’s protocols (all from BD Biosciences, San Diego, CA, USA).
substance,measurement,setting,value
"Ana: recombinantly produced N-terminal methionylated, nonglycosylated version of human IL-1Ra [reference compound]",Inhibition of IL-1β-induced nitric oxide production,[1],inhibited
same,Concentration giving maximal inhibition of IL-1β-induced apoptosis,[2],86.8 µM
same,Maximal inhibition of IL-1β-induced apoptosis,"[2]; 30 minutes preincubation, four independent experiments",64%
same,Effect on LPS-induced body weight decrease,"[3]; 24 hours after LPS 250 μg/kg i.p., Ilantide-t 10 mg/kg, P < 0.05",attenuated the anorexigenic effect of LPS
same,Social behavior per se (without LPS),"[3]; Ilantide-t 10 mg/kg s.c., vehicle i.p.",did not modify social behavior per se
same,Effect on LPS-induced depression of social activity (sickness behavior),"[3]; LPS 250 μg/kg i.p., Ilantide-t 10 mg/kg s.c., 2 to 24 hours",No significant effect
